Experimental data: patent US20250236608A1, “EGFR INHIBITORS” (Blueprint Medicines Corporation, priority 2022, published 2025)

Tests used:
EGFR (d746-750) = EGFR (d746-750) (Homo sapiens (Human), UniProt P00533, DEL746-750); test: Biochemical EGFR inhibition assay, EGFR (d746-750); details: Caliper mobility shift; 1.0 mM ATP or ATP Km; read-out: Enz EGFR_Exon19-del746-750 IC50
Description: (§1) Reactions proceeded until between 10% to 20% total peptides were phosphorylated at room temperature (25° C.) and were terminated with 35 mM 2,2′,2″,2″-(ethane-1,2-diyldinitrilo)tetraacetic acid (EDTA). Product was detected using the Caliper mobility shift detection method where the phosphorylated peptide (product) and substrate were electrophoretically separated and measured. Percent activity was plotted against log concentration of compound and points to generate an apparent IC50.

[1] = target: pEGFR (Tyr1068) in PC-9 cells (Ex19Del) (Homo sapiens (Human), UniProt P00533, DEL746-750); test: PC-9 pEGFR AlphaLISA assay; assay type: cell-based; details: 4 hours incubation, p-EGFR (Tyr1068) AlphaLISA, read-out: Ext pEGFR_PC-9 Ex19Del IC50
Chain of pEGFR (Tyr1068) in PC-9 cells (Ex19Del) (P00533 other isoform, or with tags, fused parts or gaps del 746-750): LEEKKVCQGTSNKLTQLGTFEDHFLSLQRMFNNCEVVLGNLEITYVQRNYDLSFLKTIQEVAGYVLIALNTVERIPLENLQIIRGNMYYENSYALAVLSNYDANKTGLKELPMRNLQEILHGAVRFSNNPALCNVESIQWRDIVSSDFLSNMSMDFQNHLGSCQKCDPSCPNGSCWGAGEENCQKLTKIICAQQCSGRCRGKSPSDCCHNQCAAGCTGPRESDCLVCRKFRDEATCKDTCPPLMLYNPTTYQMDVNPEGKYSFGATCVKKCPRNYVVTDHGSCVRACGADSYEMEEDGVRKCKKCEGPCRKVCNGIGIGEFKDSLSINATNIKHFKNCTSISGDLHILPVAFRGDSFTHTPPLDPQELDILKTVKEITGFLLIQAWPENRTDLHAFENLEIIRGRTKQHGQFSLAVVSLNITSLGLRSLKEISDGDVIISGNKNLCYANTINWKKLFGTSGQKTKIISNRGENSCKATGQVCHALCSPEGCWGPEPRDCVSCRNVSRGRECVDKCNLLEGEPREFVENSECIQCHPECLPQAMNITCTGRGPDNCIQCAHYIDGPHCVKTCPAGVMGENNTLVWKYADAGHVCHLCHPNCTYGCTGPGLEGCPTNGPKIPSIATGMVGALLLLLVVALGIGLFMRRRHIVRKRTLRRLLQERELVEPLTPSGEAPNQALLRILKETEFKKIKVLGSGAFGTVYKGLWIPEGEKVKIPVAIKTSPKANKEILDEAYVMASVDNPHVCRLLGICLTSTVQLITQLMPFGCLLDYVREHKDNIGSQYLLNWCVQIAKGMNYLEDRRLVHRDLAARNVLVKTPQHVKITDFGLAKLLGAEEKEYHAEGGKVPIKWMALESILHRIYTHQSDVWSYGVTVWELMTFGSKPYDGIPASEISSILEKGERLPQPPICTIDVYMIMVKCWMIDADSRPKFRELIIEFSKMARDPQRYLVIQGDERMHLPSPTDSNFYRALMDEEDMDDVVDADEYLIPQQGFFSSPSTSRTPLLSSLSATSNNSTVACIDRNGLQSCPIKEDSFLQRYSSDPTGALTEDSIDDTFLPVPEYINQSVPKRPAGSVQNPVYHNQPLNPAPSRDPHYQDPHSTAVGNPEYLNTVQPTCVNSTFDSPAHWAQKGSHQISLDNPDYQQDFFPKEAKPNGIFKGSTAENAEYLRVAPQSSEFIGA
Description: PC-9/A431 pEGFR AlphaLISA Assays
Inhibitory effects of compounds were evaluated in cellular assays that measure level of intracellular phosphorylation of EGFR in PC-9 (ECACC, #90071810, Milipore/Sigma) and A431 cell lines (ATCC, CRL-1555) using AlphaLISA sureFire ultra p-EGFR (Tyr1068) assay kit (PerkinElmer, ALSU-PEGFR-A50K). PC-9 cells were seeded at 3.125×10^5 cells/ml in 40 μL phenol-free DMEM supplemented with 10% FBS per well of a 384 well plate (Corning, 3764), while A431 were seeded at 3.125×10^5 cells/ml in 40 μL in phenol-free DMEM with 0.5% FBS. Cells were allowed to adhere overnight at 37° C./5% CO2. On the next day, compounds were transferred at 4-fold, 10-point serial dilution from compound source plate to cell plates using liquid handler Echo550 and were incubated at 37° C./5% CO2 for 4 hours. A431 cells were stimulated prior harvesting for 10 min with EGF at final concentration of 30 ng/ml in the incubator. Medium was removed from the plates and cells were lysed with 10 μL of 1× AlphaLISA lysis buffer (supplemented with 1× protease/phosphatase inhibitor cocktail) followed by shaking at 600 rpm for 30 minutes at room temperature. Lysates were transferred to Optiplate (Apricot designs) and 5 μl of 1× acceptor bead mix (prepared just before use) was added to each well followed by incubation at room temperature for 1.5-2 h in dark. Then 5 μL of freshly-made donor bead mix is added to each well under subdued lighting or green filters, was mixed well on the shaker and the plate was sealed and left for an overnight incubation at room temperature in dark. On the next day, the plate was read the Envision using standard AlphaLisa settings. Percent of pEGFR inhibition was plotted against log concentration of compounds to generate IC50 values.

EGFR L858R = EGFR L858R (Homo sapiens (Human), UniProt P00533, L858R); test: Biochemical EGFR inhibition assay, EGFR L858R; details: Caliper mobility shift; 1.0 mM ATP or ATP Km; read-out: Enz EGFR_L858R IC50
Chain of EGFR L858R (P00533 25-1210 L858R): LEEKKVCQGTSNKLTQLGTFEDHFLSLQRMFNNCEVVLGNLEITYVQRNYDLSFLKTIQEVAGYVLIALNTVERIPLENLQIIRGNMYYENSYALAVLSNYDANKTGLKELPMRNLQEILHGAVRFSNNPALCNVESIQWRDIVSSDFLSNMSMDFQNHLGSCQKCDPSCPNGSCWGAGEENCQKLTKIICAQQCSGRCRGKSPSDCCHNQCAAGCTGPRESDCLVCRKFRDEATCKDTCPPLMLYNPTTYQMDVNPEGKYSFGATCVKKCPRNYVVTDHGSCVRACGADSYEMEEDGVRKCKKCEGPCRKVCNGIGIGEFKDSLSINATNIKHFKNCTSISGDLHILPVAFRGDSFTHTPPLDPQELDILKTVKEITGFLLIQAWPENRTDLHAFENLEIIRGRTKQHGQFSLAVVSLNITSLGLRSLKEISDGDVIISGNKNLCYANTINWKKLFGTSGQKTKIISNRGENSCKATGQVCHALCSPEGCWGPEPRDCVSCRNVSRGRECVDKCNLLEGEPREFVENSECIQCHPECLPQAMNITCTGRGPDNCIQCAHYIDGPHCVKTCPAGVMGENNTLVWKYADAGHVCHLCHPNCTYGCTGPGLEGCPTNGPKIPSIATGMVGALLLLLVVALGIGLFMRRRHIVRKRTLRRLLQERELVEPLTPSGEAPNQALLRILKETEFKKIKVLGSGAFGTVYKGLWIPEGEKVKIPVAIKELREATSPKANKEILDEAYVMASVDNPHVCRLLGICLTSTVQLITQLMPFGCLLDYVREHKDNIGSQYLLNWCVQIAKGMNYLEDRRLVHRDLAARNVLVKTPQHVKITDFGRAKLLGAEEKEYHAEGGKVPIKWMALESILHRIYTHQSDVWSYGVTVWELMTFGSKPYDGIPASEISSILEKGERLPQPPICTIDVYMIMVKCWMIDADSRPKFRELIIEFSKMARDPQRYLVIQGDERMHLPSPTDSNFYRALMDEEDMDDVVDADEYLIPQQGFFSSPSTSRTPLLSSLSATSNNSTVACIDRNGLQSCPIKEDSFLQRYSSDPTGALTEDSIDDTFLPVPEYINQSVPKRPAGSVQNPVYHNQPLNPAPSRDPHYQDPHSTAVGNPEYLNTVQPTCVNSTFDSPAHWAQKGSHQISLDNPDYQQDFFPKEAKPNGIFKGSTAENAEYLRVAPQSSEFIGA
Description: as §1

Chain of EGFR (d746-750) (P00533 other isoform, or with tags, fused parts or gaps del 1-694/del 746-750 limits assumed): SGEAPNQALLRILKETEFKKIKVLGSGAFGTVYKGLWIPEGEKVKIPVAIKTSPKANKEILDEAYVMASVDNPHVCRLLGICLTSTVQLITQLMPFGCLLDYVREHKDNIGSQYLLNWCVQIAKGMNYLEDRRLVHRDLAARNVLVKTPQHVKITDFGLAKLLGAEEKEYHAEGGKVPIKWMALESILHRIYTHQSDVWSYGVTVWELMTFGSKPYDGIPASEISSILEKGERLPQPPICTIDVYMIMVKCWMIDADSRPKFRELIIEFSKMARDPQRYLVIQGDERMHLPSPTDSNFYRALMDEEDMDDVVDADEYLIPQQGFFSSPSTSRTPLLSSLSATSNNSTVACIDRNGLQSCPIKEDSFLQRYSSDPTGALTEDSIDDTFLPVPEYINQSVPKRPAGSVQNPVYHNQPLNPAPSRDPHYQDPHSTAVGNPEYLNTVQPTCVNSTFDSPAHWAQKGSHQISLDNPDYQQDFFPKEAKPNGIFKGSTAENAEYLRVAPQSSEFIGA

With `CCOc1cc2ncnc(-c3cn(C)nc3-c3ccccc3)c2nc1NC(=O)C12CC(N(C)C)(C1)C2` [Example 420, 3-(dimethylamino)-N-(7-ethoxy-4-(1-methyl-3-phenyl-1H-pyrazol-4-yl)pyrido[3,2-d]pyrimidin-6-yl)bicyclo[1.1.1]pentane-1-carboxamide] the IC50 (EGFR (d746-750)) was 1.7 nM, the IC50 [1] was 5.9 nM and the IC50 (EGFR L858R) was 30.4 nM.
`CCOc1cc2ncnc(-c3cn(C)nc3-c3ccccc3)c2cc1NC(=O)[C@]12C[C@H]1CN(C)C2` (single isomer, unassigned) [Example 257, (1R,5R)—N-(7-ethoxy-4-(1-methyl-3-phenyl-1H-pyrazol-4-yl)quinazolin-6-yl)-3-methyl-3-azabicyclo[3.1.0]hexane-1-carboxamide or (1S,5S)—N-(7-ethoxy-4-(1-methyl-3-phenyl-1H-pyrazol-4-yl)quinazolin-6-yl)-3-methyl-3-azabicyclo[3.1.0]hexane-1-carboxamide] gave an IC50 (EGFR (d746-750)) of 0.9 nM, an IC50 [1] of 4.8 nM and an IC50 (EGFR L858R) of 1.5 nM.
`CCn1cc(C(=O)Nc2cc3c(-c4cn(C)nc4-c4ccccc4)ncnc3cc2OC)cn1` [Example 219, 1-ethyl-N-(7-methoxy-4-(1-methyl-3-phenyl-1H-pyrazol-4-yl)quinazolin-6-yl)-1H-pyrazole-4-carboxamide] gave an IC50 (EGFR (d746-750)) of 1.1 nM, an IC50 [1] of 1.7 nM and an IC50 (EGFR L858R) of 1.9 nM.
For `CCOc1cc2ncnc(-c3cn(C)nc3-c3ccccc3)c2cc1N1CCN(C)CC1` [Example 162, 7-ethoxy-4-(1-methyl-3-phenyl-1H-pyrazol-4-yl)-6-(4-methylpiperazin-1-yl)quinazoline], the IC50 (EGFR (d746-750)) was 2.6 nM, the IC50 [1] was 6 nM and the IC50 (EGFR L858R) was 7 nM.
With `COc1cc2ncnc(-c3cn(C)nc3-c3ccccc3)c2nc1NC(=O)c1cnn(C(F)(F)F)c1C` [Example 427, N-(7-methoxy-4-(1-methyl-3-phenyl-1H-pyrazol-4-yl)pyrido[3,2-d]pyrimidin-6-yl)-5-methyl-1-(trifluoromethyl)-1H-pyrazole-4-carboxamide] the IC50 (EGFR (d746-750)) was 0.7 nM, the IC50 [1] was 2.1 nM and the IC50 (EGFR L858R) was 2 nM.
`COc1cc2ncnc(-c3cn(C)nc3-c3ccccc3)c2cc1NC(=O)C[C@H]1CCCO1` [Example 280, (R)—N-(7-methoxy-4-(1-methyl-3-phenyl-1H-pyrazol-4-yl)quinazolin-6-yl)-2-(tetrahydrofuran-2-yl) acetamide] gave an IC50 (EGFR (d746-750)) of 1.7 nM, an IC50 [1] of 2.5 nM and an IC50 (EGFR L858R) of 2.4 nM.
`CCn1cc(-c2ncnc3cc(OC)c(NC(=O)c4cnn(C(F)(F)F)c4)nc23)c(-c2ccccc2)n1` [Example 314, N-(4-(1-ethyl-3-phenyl-1H-pyrazol-4-yl)-7-methoxypyrido[3,2-d]pyrimidin-6-yl)-1-(trifluoromethyl)-1H-pyrazole-4-carboxamide] showed an IC50 (EGFR (d746-750)) of 0.8 nM, an IC50 [1] of 1.1 nM and an IC50 (EGFR L858R) of 1.4 nM.
With `COc1cc2ncnc(-c3cn(C)nc3-c3ccccc3)c2nc1O[C@@H](C)c1cscn1` (single isomer, unassigned) [Example 50, (S)-4-(1-((7-methoxy-4-(1-methyl-3-phenyl-1H-pyrazol-4-yl)pyrido[3,2-d]pyrimidin-6-yl)oxy)ethyl)thiazole or (R)-4-(1-((7-methoxy-4-(1-methyl-3-phenyl-1H-pyrazol-4-yl)pyrido[3,2-d]pyrimidin-6-yl)oxy)ethyl)thiazole] the IC50 (EGFR (d746-750)) was 0.3 nM, the IC50 [1] was 0.3 nM and the IC50 (EGFR L858R) was 0.5 nM.
`CN(C)C12CC(C(=O)Nc3nc4c(-c5cn(C)nc5-c5ccccc5F)ncnc4cc3OC3CC3)(C1)C2` [Example 469, N-{7-cyclopropoxy-4-[3-(2-fluorophenyl)-1-methyl-1H-pyrazol-4-yl]pyrido[3,2-d]pyrimidin-6-yl}-3-(dimethylamino) bicyclo[1.1.1]pentane-1-carboxamide] showed an IC50 (EGFR (d746-750)) of 2.4 nM, an IC50 [1] of 2.7 nM and an IC50 (EGFR L858R) of 11.1 nM.
In the case of `COc1cc2ncnc(-c3cn(C)nc3-c3ccccc3)c2cc1NC(=O)c1cccnc1C` [Example 195, N-(7-methoxy-4-(1-methyl-3-phenyl-1H-pyrazol-4-yl)quinazolin-6-yl)-2-methylnicotinamide], the IC50 (EGFR (d746-750)) is reported as 1.6 nM, the IC50 [1] is reported as 5.9 nM and the IC50 (EGFR L858R) is reported as 3.8 nM.
For `COc1cc2ncnc(-c3cn(C)nc3-c3ccccc3)c2nc1NC(=O)[C@@H]1C[C@H]2C[C@H]2N1C` [Example 418, (1R,3S,5R)—N-(7-methoxy-4-(1-methyl-3-phenyl-1H-pyrazol-4-yl)pyrido[3,2-d]pyrimidin-6-yl)-2-methyl-2-azabicyclo[3.1.0]hexane-3-carboxamide], the IC50 (EGFR (d746-750)) was 0.6 nM, the IC50 [1] was 1.8 nM and the IC50 (EGFR L858R) was 1.8 nM.
For `CN(C)CCOc1cc2ncnc(-c3cn(C)nc3-c3ccccc3)c2nc1NC(=O)C1(C(F)(F)F)CC1` [Example 434, N-(7-(2-(dimethylamino)ethoxy)-4-(1-methyl-3-phenyl-1H-pyrazol-4-yl)pyrido[3,2-d]pyrimidin-6-yl)-1-(trifluoromethyl)cyclopropane-1-carboxamide], the IC50 (EGFR (d746-750)) was 2 nM, the IC50 [1] was 3.5 nM and the IC50 (EGFR L858R) was 6.8 nM.
With `COc1cc2ncnc(-c3cn(C)nc3-c3ccccc3)c2cc1OC(=O)N1CCO[C@H](C)[C@@H]1C` [Example 94, 7-methoxy-4-(1-methyl-3-phenyl-1H-pyrazol-4-yl)quinazolin-6-yl (2R,3S)-2,3-dimethylmorpholine-4-carboxylate] the IC50 (EGFR (d746-750)) was 3.2 nM, the IC50 [1] was 11.3 nM and the IC50 (EGFR L858R) was 6.4 nM.
Molecule `[2H]C([2H])([2H])Oc1cc2ncnc(-c3cnn(C([2H])([2H])[2H])c3-c3ccccc3)c2nc1NC(=O)C1(C(F)(F)F)CC1` [Example 487, N-(7-(methoxy-d3)-4-(1-(methyl-d3)-5-phenyl-1H-pyrazol-4-yl)pyrido[3,2-d]pyrimidin-6-yl)-1-(trifluoromethyl)cyclopropane-1-carboxamide] has an IC50 (EGFR (d746-750)) of 19.5 nM, an IC50 [1] of 173 nM and an IC50 (EGFR L858R) of 50 nM.
`COc1cc2ncnc(-c3cn(C)nc3-c3ccccc3)c2nc1NC(=O)c1cccc(F)c1` [Example 313, 3-fluoro-N-(7-methoxy-4-(1-methyl-3-phenyl-1H-pyrazol-4-yl)pyrido[3,2-d]pyrimidin-6-yl)benzamide] gave an IC50 (EGFR (d746-750)) of 0.8 nM, an IC50 [1] of 3.8 nM and an IC50 (EGFR L858R) of 2.7 nM.
For `COc1cc2ncnc(-c3cn(C)nc3-c3c(F)cccc3F)c2cc1NC(=O)C1CC1` [Example 338, N-(4-(3-(2,6-difluorophenyl)-1-methyl-1H-pyrazol-4-yl)-7-methoxyquinazolin-6-yl)cyclopropanecarboxamide], the IC50 (EGFR (d746-750)) was 1.2 nM, the IC50 [1] was 2.3 nM and the IC50 (EGFR L858R) was 1.9 nM.
In the case of `COCCOc1cc2ncnc(-c3cn(CC(F)F)nc3-c3ccccc3)c2cc1OC` [Example 16, 4-(1-(2,2-difluoroethyl)-3-phenyl-1H-pyrazol-4-yl)-6-methoxy-7-(2-methoxyethoxy)quinazoline], the IC50 (EGFR (d746-750)) is reported as 1.2 nM, the IC50 [1] is reported as 2.1 nM and the IC50 (EGFR L858R) is reported as 1.8 nM.
`COc1cc2ncnc(-c3cn(CC(F)F)nc3-c3ccccc3)c2cc1NC(=O)c1scnc1C` [Example 273, N-(4-(1-(2,2-difluoroethyl)-3-phenyl-1H-pyrazol-4-yl)-7-methoxyquinazolin-6-yl)-4-methylthiazole-5-carboxamide] gave an IC50 (EGFR (d746-750)) of 1 nM, an IC50 [1] of 0.6 nM and an IC50 (EGFR L858R) of 1.5 nM.
`COc1cc2ncnc(-c3cn(C)nc3-c3ccccc3)c2cc1NC(=O)c1ccc(F)cc1` [Example 222, 4-fluoro-N-(7-methoxy-4-(1-methyl-3-phenyl-1H-pyrazol-4-yl)quinazolin-6-yl)benzamide] was tested, and the IC50 (EGFR (d746-750)) was 0.9 nM, the IC50 [1] was 1.5 nM and the IC50 (EGFR L858R) was 1.5 nM.
Work on `CCOc1cc2ncnc(-c3cn(C)nc3-c3ccccc3)c2cc1NC(=O)[C@]12COC[C@H]1C2` [Example 291, (1S,5S)—N-(7-ethoxy-4-(1-methyl-3-phenyl-1H-pyrazol-4-yl)quinazolin-6-yl)-3-oxabicyclo[3.1.0]hexane-1-carboxamide] yielded an IC50 (EGFR (d746-750)) of 1 nM, an IC50 [1] of 1.7 nM and an IC50 (EGFR L858R) of 1.6 nM.
